target: T1, human recombinant GPR65 (Homo sapiens, UniProt Q8IYL9); test: Human GPR65 cAMP HTRF antagonist assay; type: cell-based; conditions: not given
T1 construct: host or cells: 1321N1 human astrocytoma cells (1321N1-hrGPR65)
Summary of the method: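 1321N1 astrocytoma cells stably expressing GPR65 were preincubated with compound for 30 min at room temperature in KRH pH 7.6 with 1 mM IBMX and 200 μM EDTA. They were then stimulated at assay pH 7.2 for 30 min, with controls at pH 7.9. cAMP was read by HTRF (665/620 nm), normalised to controls and fitted by 4-parameter logistic to give IC50.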

T1 sequence (Q8IYL9 whole entry): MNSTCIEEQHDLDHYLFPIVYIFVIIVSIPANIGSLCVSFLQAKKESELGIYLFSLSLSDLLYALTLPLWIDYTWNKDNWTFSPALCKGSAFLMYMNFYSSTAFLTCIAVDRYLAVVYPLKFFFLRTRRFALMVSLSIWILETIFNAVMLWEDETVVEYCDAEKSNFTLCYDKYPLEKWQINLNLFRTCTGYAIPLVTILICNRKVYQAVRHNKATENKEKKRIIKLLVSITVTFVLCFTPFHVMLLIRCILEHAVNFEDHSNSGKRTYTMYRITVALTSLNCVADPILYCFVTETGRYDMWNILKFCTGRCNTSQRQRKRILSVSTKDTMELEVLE

Question: With O=C(Nc1cccc(C(F)(F)F)c1)N1C2CCC1c1ccnc(F)c1C2 (racemic) [Compound 156, (±)-1-Fluoro-N-(3-(trifluoromethyl)phenyl)-6,7,8,9-tetrahydro-5H-5,8-epiminocyclohepta[c]pyridine-10-carboxamide] as the compound, how does the IC50 read?
Answer: The IC50 was less than 500 nM.

Question: How did the IC50 turn out when O=C(Nc1ccc(OC(F)(F)F)cc1)N1C2CCC1c1ccnc(F)c1C2 (racemic) [Compound 157, (±)-1-Fluoro-N-(4-(trifluoromethoxy)phenyl)-6,7,8,9-tetrahydro-5H-5,8-epiminocyclohepta[c]pyridin-10-carboxamide] was run?
Answer: The IC50 was less than 500 nM.

Question: Which IC50 does the source give for O=C(Nc1ccc(-c2ccccc2)cc1)N1C2CCC1c1ccnc(F)c1C2 (racemic) [Compound 158, (±)-N-([1,1′-Biphenyl]-4-yl)-1-fluoro-6,7,8,9-tetrahydro-5H-5,8-epiminocyclohepta[c]pyridine-10-carboxamide] here?
Answer: The IC50 was less than 500 nM.

Question: Which IC50 does the source give for Cc1ccc(NC(=O)N2C3CCC2c2ccnc(F)c2C3)cc1C(F)(F)F (racemic) [Compound 160, (±)-1-Fluoro-N-(4-methyl-3-(trifluoromethyl)phenyl)-6,7,8,9-tetrahydro-5H-5,8-epiminocyclohepta[c]pyridine-10-carboxamide] here?
Answer: Its IC50 is less than 500 nM.

Question: How did the IC50 turn out when N#Cc1ccc(NC(=O)N2C3CCC2c2ccnc(F)c2C3)cc1C(F)(F)F (racemic) [Compound 163, (±)-N-(4-Cyano-3-(trifluoromethyl)phenyl)-1-fluoro-6,7,8,9-tetrahydro-5H-5,8-epiminocyclohepta[c]pyridine-10-carboxamide] was run?
Answer: Its IC50 is less than 500 nM.

Question: Which IC50 does the source give for O=C(Nc1cc(Cl)cc(C(F)(F)F)c1)N1C2CCC1c1ccnc(F)c1C2 (racemic) [Compound 164, (±)-N-(3-Chloro-5-(trifluoromethyl)phenyl)-1-fluoro-6,7,8,9-tetrahydro-5H-5,8-epiminocyclohepta[c]pyridine-10-carboxamide] here?
Answer: The IC50 was less than 500 nM.

Question: For O=C(Nc1cc(Cl)c(Cl)c(Cl)c1)N1C2CCC1c1ccnc(F)c1C2 (racemic) [Compound 166, (±)-1-Fluoro-N-(3,4,5-trichlorophenyl)-6,7,8,9-tetrahydro-5H-5,8-epiminocyclohepta[c]pyridine-10-carboxamide], which IC50 is on record?
Answer: Its IC50 is less than 500 nM.

Question: Cc1cc(NC(=O)N2C3CCC2c2ccnc(F)c2C3)ccc1C(F)(F)F (racemic) [Compound 167, (±)-1-Fluoro-N-(3-methyl-4-(trifluoromethyl)phenyl)-6,7,8,9-tetrahydro-5H-5,8-epiminocyclohepta[c]pyridine-10-carboxamide] was tested. Which IC50 did it give?
Answer: Its IC50 is less than 500 nM.

Question: How did the IC50 turn out when O=C(Nc1ccc(Br)cc1)N1C2CCC1c1ccnc(F)c1C2 (racemic) [Compound 168, (±)-N-(4-Bromophenyl)-1-fluoro-6,7,8,9-tetrahydro-5H-5,8-epiminocyclohepta[c]pyridine-10-carboxamide] was run?
Answer: Its IC50 is less than 500 nM.

Question: Which IC50 does the source give for O=C(Nc1cccc(Br)c1)N1C2CCC1c1ccnc(F)c1C2 (racemic) [Compound 170, (±)-N-(3-Bromophenyl)-1-fluoro-6,7,8,9-tetrahydro-5H-5,8-epiminocyclohepta[c]pyridine-10-carboxamide] here?
Answer: The IC50 was less than 500 nM.

Question: Which IC50 does the source give for O=C(Nc1cccc(OC(F)(F)F)c1)N1C2CCC1c1ccnc(F)c1C2 (racemic) [Compound 171, (±)-1-Fluoro-N-(3-(trifluoromethoxy)phenyl)-6,7,8,9-tetrahydro-5H-5,8-epiminocyclohepta[c]pyridine-10-carboxamide] here?
Answer: The IC50 was less than 500 nM.

Question: With O=C(Nc1ccc(F)c(Br)c1)N1C2CCC1c1ccnc(F)c1C2 (racemic) [Compound 172, (±)-N-(3-Bromo-4-fluorophenyl)-1-fluoro-6,7,8,9-tetrahydro-5H-5,8-epiminocyclohepta[c]pyridine-10-carboxamide] as the compound, how does the IC50 read?
Answer: Its IC50 is less than 500 nM.

Question: How did the IC50 turn out when O=C(Nc1cc(Cl)ccc1F)N1C2CCC1c1ccnc(F)c1C2 (racemic) [Compound 174, (±)-N-(5-Chloro-2-fluorophenyl)-1-fluoro-6,7,8,9-tetrahydro-5H-5,8-epiminocyclohepta[c]pyridine-10-carboxamide] was run?
Answer: The IC50 was less than 500 nM.

Question: O=C(Nc1ccc(Cl)cc1F)N1C2CCC1c1ccnc(F)c1C2 (racemic) [Compound 177, (±)-N-(4-Chloro-2-fluorophenyl)-1-fluoro-6,7,8,9-tetrahydro-5H-5,8-epiminocyclohepta[c]pyridine-10-carboxamide] was tested. Which IC50 did it give?
Answer: Its IC50 is less than 500 nM.

Question: Which IC50 does the source give for O=C(Nc1ccc(F)c(Cl)c1)N1C2CCC1c1ccnc(F)c1C2 (racemic) [Compound 178, (±)-N-(3-Chloro-4-fluorophenyl)-1-fluoro-6,7,8,9-tetrahydro-5H-5,8-epiminocyclohepta[c]pyridine-10-carboxamide] here?
Answer: The IC50 was less than 500 nM.

Question: O=C(Nc1cc(Cl)c(Cl)cc1F)N1C2CCC1c1ccc(F)nc1C2 (racemic) [Compound 181, (±)-N-(4,5-Dichloro-2-fluorophenyl)-2-fluoro-6,7,8,9-tetrahydro-5H-5,8-epiminocyclohepta[b]pyridine-10-carboxamide] was tested. Which IC50 did it give?
Answer: Its IC50 is less than 500 nM.

Question: How did the IC50 turn out when O=C(Nc1cc(Cl)c(C(F)(F)F)cc1F)N1C2CCC1c1ccc(F)nc1C2 (racemic) [Compound 182, (±)-N-(5-Chloro-2-fluoro-4-(trifluoromethyl)phenyl)-2-fluoro-6,7,8,9-tetrahydro-5H-5,8-epiminocyclohepta[b]pyridine-10-carboxamide] was run?
Answer: The IC50 was less than 500 nM.

Question: Which IC50 does the source give for O=C(Nc1cc(Cl)c(C(F)(F)F)cc1F)N1C2CCC1c1ccc(=O)[nH]c1C2 (racemic) [Compound 189, (±)-N-(5-Chloro-2-fluoro-4-(trifluoromethyl)phenyl)-2-oxo-2,5,6,7,8,9-hexahydro-1H-5,8-epiminocyclohepta[b]pyridine-10-carboxamide] here?
Answer: The IC50 was less than 500 nM.

Question: With O=C(Nc1ccc(C(F)(F)F)c(Cl)c1)N1[C@H]2CC[C@@H]1c1cncnc1C2 [Compound 38, (5R,8S)-N-(3-Chloro-4-(trifluoromethyl)phenyl)-6,7,8,9-tetrahydro-5H-5,8-epiminocyclohepta[d]pyrimidine-10-carboxamide] as the compound, how does the IC50 read?
Answer: Its IC50 is less than 500 nM.

same assay, conditions: 1321N1-hrGPR65 cells, assay pH 7.2, cAMP HTRF; read-out: hGPR65 IC50 (activity class)

Question: O=C(Nc1cccc(F)c1)N1C2CCC1c1ccnc(F)c1C2 (racemic) [Compound 155, (±)-1-Fluoro-N-(3-fluorophenyl)-6,7,8,9-tetrahydro-5H-5,8-epiminocyclohepta[c]pyridine-10-carboxamide] was tested. Which IC50 did it give?
Answer: The IC50 was 500 to 5000 nM.

Question: How did the IC50 turn out when O=C(Nc1cc(C(F)(F)F)cc(C(F)(F)F)c1)N1C2CCC1c1ccnc(F)c1C2 (racemic) [Compound 159, (±)-N-(3,5-Bis(trifluoromethyl)phenyl)-1-fluoro-6,7,8,9-tetrahydro-5H-5,8-epiminocyclohepta[c]pyridine-10-carboxamide] was run?
Answer: The IC50 was 500 to 5000 nM.

Question: With O=C(Nc1cccc(Cl)c1Cl)N1C2CCC1c1ccnc(F)c1C2 (racemic) [Compound 161, (±)-N-(2,3-Dichlorophenyl)-1-fluoro-6,7,8,9-tetrahydro-5H-5,8-epiminocyclohepta[c]pyridine-10-carboxamide] as the compound, how does the IC50 read?
Answer: The IC50 was 500 to 5000 nM.

Question: For O=C(Nc1ccc(F)cc1F)N1C2CCC1c1ccnc(F)c1C2 (racemic) [Compound 162, (±)-N-(2,4-Difluorophenyl)-1-fluoro-6,7,8,9-tetrahydro-5H-5,8-epiminocyclohepta[c]pyridin-10-carboxamide], which IC50 is on record?
Answer: The IC50 was 500 to 5000 nM.

Question: With N#Cc1cc(NC(=O)N2C3CCC2c2ccnc(F)c2C3)ccc1F (racemic) [Compound 165, (±)-N-(3-Cyano-4-fluorophenyl)-1-fluoro-6,7,8,9-tetrahydro-5H-5,8-epiminocyclohepta[c]pyridine-10-carboxamide] as the compound, how does the IC50 read?
Answer: The IC50 was 500 to 5000 nM.

Question: For O=C(Nc1ccc(OC(F)F)cc1)N1C2CCC1c1ccnc(F)c1C2 (racemic) [Compound 169, (±)-N-(4-(Difluoromethoxy)phenyl)-1-fluoro-6,7,8,9-tetrahydro-5H-5,8-epiminocyclohepta[c]pyridine-10-carboxamide], which IC50 is on record?
Answer: The IC50 was 500 to 5000 nM.

Question: With O=C(Nc1cc(F)cc(F)c1)N1C2CCC1c1ccnc(F)c1C2 (racemic) [Compound 173, (±)-N-(3,5-Difluorophenyl)-1-fluoro-6,7,8,9-tetrahydro-5H-5,8-epiminocyclohepta[c]pyridine-10-carboxamide] as the compound, how does the IC50 read?
Answer: The IC50 was 500 to 5000 nM.

Question: How did the IC50 turn out when O=C(Nc1ccc(F)c(F)c1F)N1C2CCC1c1ccnc(F)c1C2 (racemic) [Compound 175, (±)-1-Fluoro-N-(2,3,4-trifluorophenyl)-6,7,8,9-tetrahydro-5H-5,8-epiminocyclohepta[c]pyridin-10-carboxamide] was run?
Answer: The IC50 was 500 to 5000 nM.

Question: Which IC50 does the source give for N#Cc1ccc(NC(=O)N2C3CCC2c2ccnc(F)c2C3)cc1 (racemic) [Compound 176, (±)-N-(4-Cyanophenyl)-1-fluoro-6,7,8,9-tetrahydro-5H-5,8-epiminocyclohepta[c]pyridine-10-carboxamide] here?
Answer: Its IC50 is 500 to 5000 nM.

Question: How did the IC50 turn out when O=C(Nc1cc(Cl)c(Cl)cc1F)N1C2CCC1c1cnncc1C2 (racemic) [Compound 193, (±)-N-(4,5-Dichloro-2-fluorophenyl)-6,7,8,9-tetrahydro-5H-5,8-epiminocyclohepta[d]pyridazine-10-carboxamide] was run?
Answer: The IC50 was 500 to 5000 nM.

Question: For O=C(Nc1cc(Cl)c(C(F)(F)F)cc1F)N1C2CCC1c1cnncc1C2 (racemic) [Compound 194, (±)-N-(5-Chloro-2-fluoro-4-(trifluoromethyl)phenyl)-6,7,8,9-tetrahydro-5H-5,8-epiminocyclohepta[d]pyridazine-10-carboxamide], which IC50 is on record?
Answer: Its IC50 is 500 to 5000 nM.

Question: Which IC50 does the source give for O=C(Nc1cc(Cl)c(C(F)(F)F)cc1F)N1C2CCC1c1c(Cl)nnc(Cl)c1C2 (racemic) [Compound 195, (±)-1,4-Dichloro-N-(5-chloro-2-fluoro-4-(trifluoromethyl)phenyl)-6,7,8,9-tetrahydro-5H-5,8-epiminocyclohepta[d]pyridazine-10-carboxamide] here?
Answer: The IC50 was 500 to 5000 nM.

Question: With O=C(Nc1ccc(C(F)(F)F)c(Cl)c1)N1[C@@H]2CC[C@H]1c1cncnc1C2 [Compound 39, (5S,8R)-N-(3-Chloro-4-(trifluoromethyl)phenyl)-6,7,8,9-tetrahydro-5H-5,8-epiminocyclohepta[d]pyrimidine-10-carboxamide] as the compound, how does the IC50 read?
Answer: The IC50 was greater than 5000 nM.

From patent publication US20230373989A1, “N-PHENYLAMINOCARBONYL PYRIDINO-, PYRIMIDINO AND BENZO-TROPANES AS MODULATORS OF GPR65” (PATHIOS THERAPEUTICS LIMITED, priority 2020, published 2023)
